Legend:
[1] = biological target: T1, cytochrome bd oxidase (Cyt-bd) (Mycolicibacterium smegmatis, UniProt A0QXA8); assay: reduced minus oxidized heme difference spectra of NADH-energized ΔqcrCAB IMVs with […] compound; format: cell-based
T1 construct: gene MSMEG_3233; native enzyme in inverted-membrane vesicles of M. smegmatis ΔqcrCAB; with CydB
T1 sequence (A0QXA8 1-487): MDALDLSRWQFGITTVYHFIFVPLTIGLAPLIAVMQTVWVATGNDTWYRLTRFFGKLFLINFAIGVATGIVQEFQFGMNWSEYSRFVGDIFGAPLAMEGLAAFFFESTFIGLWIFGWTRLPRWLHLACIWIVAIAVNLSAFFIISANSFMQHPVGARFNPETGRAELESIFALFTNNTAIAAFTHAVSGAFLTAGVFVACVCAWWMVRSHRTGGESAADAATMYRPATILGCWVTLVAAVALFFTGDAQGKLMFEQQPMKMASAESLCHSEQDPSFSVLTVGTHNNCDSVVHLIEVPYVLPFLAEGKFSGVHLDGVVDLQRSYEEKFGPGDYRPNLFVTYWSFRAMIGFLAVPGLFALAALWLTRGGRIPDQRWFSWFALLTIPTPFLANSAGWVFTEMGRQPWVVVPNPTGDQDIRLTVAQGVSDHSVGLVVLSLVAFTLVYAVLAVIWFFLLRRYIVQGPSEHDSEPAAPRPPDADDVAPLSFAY
T1 sequence (A0QXA7 1-350 partner): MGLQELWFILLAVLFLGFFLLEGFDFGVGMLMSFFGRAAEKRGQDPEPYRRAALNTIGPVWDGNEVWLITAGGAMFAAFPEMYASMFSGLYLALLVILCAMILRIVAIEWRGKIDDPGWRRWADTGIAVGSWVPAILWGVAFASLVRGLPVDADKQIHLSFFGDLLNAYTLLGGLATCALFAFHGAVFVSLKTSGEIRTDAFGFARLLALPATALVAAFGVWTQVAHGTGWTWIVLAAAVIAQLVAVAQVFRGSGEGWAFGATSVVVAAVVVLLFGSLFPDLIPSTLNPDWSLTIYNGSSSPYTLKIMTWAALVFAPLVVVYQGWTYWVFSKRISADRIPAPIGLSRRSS

[2] = biological target: T2, cytochrome bcc (QcrB, cytochrome b subunit of cytochrome bcc:aa3) (Mycolicibacterium smegmatis, UniProt A0R052); assay: NADH-based heme difference spectra of wild-type IMVs with […] Q203; Q203 also inhibits OCR of ΔcydAB IMVs; format: cell-based
T2 construct: gene MSMEG_4263; native cytochrome bcc-aa3 supercomplex in wild-type inverted-membrane vesicles; with cytochrome bcc-aa3 supercomplex

Structure (SMILES)	reduced minus oxidized heme difference spectra of NADH-energized ΔqcrCAB IMVs wi [1]	NADH-based heme difference spectra of wild-type IMVs with 7.5 μM Q203; Q203 also [2]
FC(F)(F)c1ccc(Oc2ccc(Nc3ncnc4ccccc34)cc2)cc1 [ND-011992, N‐(4‐(4‐(trifluoromethyl)phenoxy)phenyl)quinazolin‐4‐amine]	the compound selectively binds and affects electron transfer in the mycobacterial Cyt‐bd	–
CCc1nc2ccc(Cl)cn2c1C(=O)NCc1ccc(N2CCC(c3ccc(OC(F)(F)F)cc3)CC2)cc1 [Q203]	–	confirming drug binding and inhibition of the electron transfer within the cytochrome bcc complex

— article PMC7799364, “Dual inhibition of the terminal oxidases eradicates antibiotic‐tolerant Mycobacterium tuberculosis” (EMBO Molecular Medicine, 2020)
